Values quoted from earlier work in publication PMC3310340 (Bioconjugate Chemistry, 2012).

Tested on: rats
Conditions: administered orally to rats; ref material safety data sheet for KHP

Structure (SMILES): O=C(O)c1ccccc1C(=O)O [KHP, potassium biphthalate]
- LD50: > 3200 mg/kg
